From patent US20130217871A1, “CONJUGATES COMPRISING HYDROXYALKYL STARCH AND A CYTOTOXIC AGENT AND PROCESS FOR THEIR PREPARATION” (priority 2010, published 2013)
Marks after values point to notes of the source that are not given here.

Legend:
[1] = tested on: human large cell lung carcinoma LXFL-529; assay: Tumor growth inhibition, s.c. LXFL-529 xenograft in nude mice; type: in vivo, NMRI nu/nu mice; details: Table 14; for Tumor volume mm^3 (d 14): day 14; for RTV T/C optimum [%]: optimum day in cell
From the text: Mouse strain: NMRI nu/nu, female Animals supplied by: Charles River, Germany Age of mice at implantation: 5-7 weeks
The tumor xenografts LXFL-529 (Fiebig H H, Berger D P, Dengler W A, Wallbrecher E, Winterhalter B R: Combined In Vitro/In Vivo Test Procedure with Human Tumor Xenografts for New Drug Development. Contrib. Oncol., Basel, Karger, 1992, Vol. 42, pp 321-351) used in this study were derived from surgical specimen from patients treated at the University Hospital in Freiburg, Germany, and directly implanted into nude mice. Prior to surgery, most of the patients had not received any chemotherapy.
Tumor fragments were obtained from xenografts in serial passage in nude mice. After removal from donor mice, tumors were cut into fragments (4-5 mm diameter) and placed in PBS until subcutaneous implantation. Recipient mice were anaesthetized by inhalation of isoflurane. A small incision was made in the back and one tumor fragment per animal was transplanted with tweezers. The mice were monitored daily.
At randomization, tumor-bearing animals were stratified according to tumor volume into treatment and vehicle (control) groups. Only animals carrying one tumor of appropriate size (approximately 50-250 mm^3) were considered for randomization. Mice were randomized when the required number of mice qualified for randomization. The day of randomization was designated as day 0, which was also the first day of dosing.
(§1) All test items were formulated in 0.9% NaCl solution and given as i.v. bolus injection despite everolimus, which was given per oral.
(§2) Measurement of tumor volume and body weight as well as calculations of relative tumor volumes were carries out analogue to the procedure described in 1.3.

[2] = Toxicity in ASPC-1 tumor-bearing nude mice (body weight change, toxic death, blood counts); type: in vivo, NMRI:nu/nu mice
Protocol: (§3) At palpable tumor size (30-100 mm^3) treatment started. The application volume was 0.2 ml/20 g mouse body weight. The test compounds, the vehicle controls and the reference compounds were all given intravenously (i.v.).
(§4) Tumor growth inhibition was used as therapeutic parameter. Additionally, body weight change was determined as signs for toxicity (particularly, potential hematological or gastrointestinal side effects).
Individual body weights of mice were determined twice weekly and mean body weight per group was related to the initial value in percent (body weight change, BWC).
On the day of necropsy mice were sacrificed by cervical dislocation and inspected for gross organ changes.

[3] = tested on: human pancreas carcinoma ASPC-1; assay: Tumor growth inhibition, s.c. ASPC-1 xenograft in nude mice; type: in vivo, NMRI:nu/nu mice; details: 60 mg/kg/inj. i.v.
From the text: The human pancreas carcinoma ASPC-1 was used as s.c. xenotransplantation model in immunodeficient female NMRI:nu/nu mice.
The cells were obtained from ATCC and are cryo-preserved within the EPO tumor bank. They were thawed, expanded in vitro and transplanted as cell suspension subcutaneously (s.c.) in female NMRI:nu/nu mice. The tumor line ASPC-1 is used for testing new anticancer drugs or novel therapeutic strategies. It was therefore selected for this study.
For experimental use 10^7 tumor cells/mouse from the in vitro passage were transplanted s.c. into the flank of each of 10 mice/group at day 0.
as §3, §4
Tumor diameters were measured twice weekly with a caliper. Tumor volumes were calculated according to V=(length x (width)^2)/2. For calculation of the relative tumor volume (RTV) the tumor volumes at each measurement day were related to the day of first treatment. At each measurement day the median and mean tumor volumes per group and also the treated to control (T/C) values in percent were calculated (Tables 11-13).
Descriptive statistics were performed on the data of body weight and tumor volume. […] Statistical evaluation was performed with the U-test of Mann and Whitney with a significance level of p≦0.05, using the Windows program […] 6.
All Gemcitabine-conjugates were stored in a freeze-dried form at −20° C. until use. Solutions were prepared immediately before injection by solving the conjugates in saline solution by vortexing in combination with centrifugation until a clear solution of the necessary concentration of the drug was obtained.
Gemcitabine (Gemzar®, charge A4781790 200 mg) was obtained from Lilly Deutschland GmbH and was stored in the dark at −20° C. until use. The final solution of Gemzar® was prepared immediately before injection by mixing the appropriate volume of the original stock solution (200 mg) with saline (0.9%, infusion solution, Ch.-Nr 0205A231, B. Braun Melsungen AG, Germany).

[4] = Toxicity in LXFL-529 tumor-bearing nude mice (mortality, body weight change); type: in vivo; details: Table 14; days 0, 3, 7, 10 (20 mg/kg); 5 mice; at day 13
Protocol: All experiments were conducted according to the guidelines of the German Animal Welfare Act (Tierschutzgesetz). Animal health was examined prior to tumor implantation and randomization to ensure that only animals without any symptoms of disease were selected to enter testing procedures. During the experiments, animals were monitored daily regarding tumor burden, general condition, feed and water supply.
as §1, §2

[5] = days 0, 3 (10 mg/kg), 7, 10, 14 (15 mg/kg) p.o.
[6] = Table 13, days 7, 14, 21, day 27
[7] = days 0, 3, 7, 10 (20 mg/kg) i.v.

CO[C@H]1C[C@@H]2CC[C@@H](C)[C@@](O)(O2)C(=O)C(=O)N2CCCC[C@H]2C(=O)O[C@H]([C@H](C)C[C@@H]2CC[C@@H](OCCO)[C@H](OC)C2)CC(=O)[C@H](C)/C=C(\C)[C@@H](O)[C@@H](OC)C(=O)[C@H](C)C[C@H](C)/C=C/C=C/C=C/1C [Everolimus]
Tumor volume mm^3 (d 14) [1, 5]: 926.1 mm^3 | RTV T/C optimum [%] [1, 5]: 53.9 (d 14) %

Nc1ccn([C@@H]2O[C@H](CO)[C@@H](O)C2(F)F)c(=O)n1 [Gemcitabine]
Platelets × 10^6/ml (at day 13) ([2]; Table 11, 60 mg/kg/inj. i.v., day 13): 915 +/− 105* × 10^6/ml | WBC × 10^6/ml (at day 13) ([2]; Table 11, white blood cell count, 60 mg/kg/inj. i.v., day 13): 5.22 +/− 1.47* × 10^6/ml | Toxic death (at day) ([2]; Table 12, 60 mg/kg/inj. i.v., 8 treatments, 8 mice, deaths at d 15, d 18): 2 | BWC [%] (at day) ([2]; Table 12, body weight change, 60 mg/kg/inj. i.v., at day 17): −15% | BWC [%] (at day) ([2]; mouse, in vivo, iv, 60 mg/kg): −2.4 (9) % | RTV T/C (%) Optimum (at day) ([3]; Table 11, 9 injections, optimum at day 36): 41.4% | Tumor volume cm^3/d 44 ([3]; Table 11, days 9, 13, 16, 20, 23, 27, 30, 34, 40, day 44): 0.272 +/− 0.119* cm^3 | Tumor volume cm^3/d 28 ([3]; Table 12, day 28): 0.159 +/− 0.058* cm^3 | RTV T/C (%) Optimum (at day) ([3]; Table 12, optimum at day 28): 23.6% | RTV T/C (%) d 27 [3, 6]: 55.1% | Tumor volume cm^3/d 27 [3, 6]: 0.480 +/− 0.317 cm^3

CO[C@H]1C[C@@H]2CC[C@@H](C)[C@@](O)(O2)C(=O)C(=O)N2CCCC[C@H]2C(=O)O[C@H]([C@H](C)C[C@@H]2CC[C@@H](OC(=O)C(C)(CO)CO)[C@H](OC)C2)CC(=O)[C@H](C)/C=C(\C)[C@@H](O)[C@@H](OC)C(=O)[C@H](C)C[C@H](C)/C=C/C=C/C=C/1C [Temsirolimus]
Tumor volume mm^3 (d 14) [1, 7]: 1073.7 mm^3 | RTV T/C optimum [%] [1, 7]: 57.1 (d 10) % | Mortality (at day) [4]: 1 (13)
